Source: patent US20200306283A1, “CANCER TREATMENT AND METASTASIS INHIBITION USING AN ANTI-CANCER STEM CELL AGENT IN COMBINATION WITH A NEU1 SIALIDASE INHIBITOR OR A CYTOKINE INHIBITOR AFTER PRIMARY CANCER TREATMENT” (priority 2016, published 2020)

Key:
[1] = tested on: enriched circulating tumour cells from a patient with metastatic prostate cancer; experiment: Cell proliferation / cancer stem cell markers (EpCAM, CD44, CD133) in enriched CTCs cultured with cytokine cocktails; format: cell-based, human; conditions: for EpCAM + CD133+ cell subpopulation / EpCAM + CD133− cell subpopulation / EpCAM − CD133+ cell subpopulation / EpCAM − CD133− cell subpopulation: CD133 PE antibody cocktail; for EpCAM + CD44+ cell subpopulation / EpCAM + CD44− cell subpopulation / EpCAM − CD44+ cell subpopulation / EpCAM − CD44− cell subpopulation: cell culture period 8 days
Description: (§1) Cells were fixed in 1% Paraformaldehyde for 15 minutes at room temperature and run on Flowsight using 2 lasers (488 nm at 60 mW and 405 nm at 30 mW). For cell lines, 100,000 events were collected whilst for enriched CTCs all events were collected until the sample finished.
(§2) Flow cytometry data was analysed using IDEAS software. Double events, out of focus events, CD45PercPCy5.5 positive cells (in case of enriched CTCs), dead cells and non-nucleated events were eliminated from the fluorescence analysis of the cell population. FIG. 2 depicts scatterplots of flow cytometry experiments showing the enriched CTCs stained with an antibody containing CD44 after treatment with various cytokines and cytokine cocktails.
In order to determine if selected cytokines influence cell proliferation of circulating tumour cells (CTCs), whole blood was collected from a patient with metastatic prostate cancer. Circulating tumour cells were enriched from whole blood using RosetteSep CTC Enrichment cocktail. Briefly, samples of whole blood were incubated with RosetteSep (anti CD 56 for 20 minutes at room temperature). Phosphate buffered saline containing 2% Fetal Bovine Serum was added to the samples and layered on a Ficoll Paque gradient. After centrifugation, the supernatant which contained CTCs was washed twice with PBS containing 2% FBS. Equal volumes of the cell suspension were seeded into a 24-well ultra-low attachment polystyrene plate. […] FIG. 3 depicts scatterplots of flow cytometry experiments enriched CTCs stained with an antibody containing CD133 after treatment with various cytokines and cytokine cocktails.
FIG. 6 depicts cell proliferation of subpopulations in cultured CTCs after exposure to various cytokines and cytokine cocktails. Cells were stained using an antibody containing CD44 PE.
Cells were stained using an antibody containing CD133 PE.

[2] = tested on: HCT-15 cells; experiment: Cell subpopulations (CD44/CD24) in HCT-15 cell line after cytokine exposure, imaging flow cytometry; format: cell-based; design: unit not given here; conditions: HCT-15 cells after exposure to cytokines singly or in pairs
Description: Two authenticated colorectal carcinoma cell lines, HCT-15 and SW-620, were used to test the effect of different cytokine and cytokine cocktails, including IL-6, HGF, PGE-2, TGF-beta and MMP-9 alone or in a cocktail, on cell proliferation, EMT and cancer stem cell populations.
In order to evaluate stem cell populations, cells were synchronized by serum starvation for 72 hours before seeding in 24-well ultra low attachment plates at a density of 200,000 cells/well. Cells were then detached using trypsin EDTA and washed twice with PBS (without Calcium or Magnesium). A cell proliferation dye, eFluor 450 was used to label cells. Cells were grown with DMEM with high glucose and 2 mM Gluatmine without FBS in the presence of selected cytokines and or cytokine cocktails over a period of 72 hrs.
Cells that were grown in 5% serum were stained with the following antibody cocktails: CD24FITC, CD44PE and CD24FITC, CD133PE. Cells were also stained with a fixable live/dead efluor dye 506 to exclude dead cells. In parallel, cells were grown in the presence of 5% serum to evaluate CSC markers.
as §1
as §2, with “cocktails. Hoescht 33258 dye was used to stain nuclei in the case of the HCT-15 cell line and enriched CTCs. All experiments were stained with a fixable live/dead dye eFluor 506 to exclude dead cells.” for “cocktails.”
To evaluate which cocktail combinations were most likely involved in cell proliferation of presumed quiescent stem cells or de-differentiated stem cell-like cells, four cytokines, IL-6, HGF, PGE-2 and TGF-beta were added singly or in pairs to HCT-15 cells. Results of combinations that influenced cell proliferation of HCT-15 cells in culture are presented. […] FIG. 4 depicts cell proliferation of subpopulations in the HCT-15 cell line after exposure to various cytokines and cytokine cocktails.

[3] = tested on: SW-620 cells; experiment: SW-620 cells treated with cytokines with or without Irinotecan, flow cytometry for stem cell markers and apoptosis; format: cell-based, human; conditions: SW-620, cytokines 24 hours then 2 μM Irinotecan 36 hours; zero in non-treated control cells
Description: SW-620 cells, a human colorectal adenocarcinoma cell line, were treated with cytokines alone or in combination including IL-6, TGF-beta, HGF, PGE-2, IL-6+PGE-2 and TGF-beta+HGF for 24 hours and compared to untreated SW-620 cells as control. Some treated and untreated SW-620 cells were then exposed to 2 μM Irinotecan for 36 hours at which point cells were harvested for flow cytometry to assess for stem cell markers and markers of apoptosis. The percentage of CD44+CD133− cells following treatment with various cytokine and cytokine cocktails is depicted in FIG. 10. Compared to non-cytokine treated cells, combinations with IL-6+PGE-2, and TGF-beta+HGF increased the number and percentage of cells that were CD44+CD133− as shown in FIG. 10 (stem cells). FIG. 11 depicts the percentage of CD44+CD133− cells following treatment with various cytokines and Irinotecan. […]
Additionally, the percentage of CD44-CD133+ cells following treatment with various cytokines and cytokines cocktails was determined as depicted in FIG. 16. The percentage of CD44-CD133+ cells following treatment with various cytokines and Irinotecan was measured as depicted in FIG. 17. The percentage of CD44-CD133+ cells following treatment with various cytokine cocktails and Irinotecan was measured as depicted in FIG. 18. […]

[4] = tested on: Panc1, Panc1-gemr, Panc1-cisr and Panc1-gemr/cisr cells; experiment: Immunocytochemistry of E-, N- and VE-cadherin on Panc1 and chemoresistant Panc1 cells after Tamiflu (FIG. 25); format: cell-based, human; conditions: Tamiflu 600 μg/mL for 24 hours, Panc1 and drug resistant lines
Description: Turning to FIG. 25, oseltamivir phosphate by itself was able to reverse a partial EMT in human PANC1 cancer cell lines, including drug resistant cancer cell lines as evidenced by an upregulation in the epithelial marker E-cadherin and a downregulation in the mesenchymal marker N-cadherin. Expression of e-cadherin, n-cadherin, and Ve-cadherin on the surface of Pancl, Pancl-gemr, Pancl-cisr, and Pancl-gemr/cisr cells were determined following treatment with Tamiflu® 600 μg/mL for 24 hours. Immunocytochemistry was performed on fixed, nonpermeabilized cells. The indicated primary antibodies for Ecadherin, N-cadherin, and Ve-cadherin were used, followed by alexa Fluor® 594 (life Technologies inc, Burlington, ON, Canada) secondary antibody for the primary antibody against n-cadherin and Dylight™ 488 (santa cruz Biotechnology, inc, santa cruz, ca, Usa) secondary antibody for primary antibodies against e-cadherin and Ve-cadherin. The background controls had no primary antibody during the staining procedure. The stained cells were visualized after 24 hours using a Zeiss M2 Imager fluorescence microscope (Carl Zeiss ag, Oberkochen, germany) at 400× magnification. Images are representative of at least four fields of view in three separate trials. Quantitative analysis was done by assessing the density of cell staining corrected for background in each panel using corel Photo Paint 8.0 software (Corel Corporation, Ottawa, ON, Canada). each bar in the figures represents the mean (±standard error of the mean) corrected density of culture cell staining for equal cell density (5×10^5 cells) within the respective images. P-values represent significant differences at 95% confidence using Dunnett's multiple comparison test compared with untreated control group. (Abbreviations: 1° ab=primary antibody; Pancl-gemr=Pancl cells with established chemoresistance to 0.01 μM gemcitabine; Pancl-gemr/cisr=Pancl cells with established chemoresistance to a combination of 0.01 μM gemcitabine and 80 μM cisplatin; cad=cadherin; Bkg=background; se=standard error.)

[5] = tested on: enriched circulating tumour cells from a patient with colorectal cancer; experiment: Cultured enriched CTCs from a colorectal cancer patient treated with IL-6, IL-8 or PDGFBB (EpCAM, CD133, Lgr5 flow cytometry); format: cell-based, human; conditions: cultured CTCs from colorectal cancer patient
Description: A blood sample was collected from a patient with colorectal cancer six days after surgery. Blood samples were enriched for CTCs using RosetteSep CD 56 kit according to standard protocol. Prior to cell culture, cells were stained with the following antibody cocktail: EpCAM A488, CD133PE, CD 45 PerCP Cy5.5, and Lgr5-PE-Vio770. Cells were either cultured in low attachment well plates without cytokines (control cells) or with three different cytokines (IL-6, IL-8 or PDGFBB).
Flow cytometry data was analysed using IDEAS software. Double events, out of focus events, CD45PercPCy5.5 positive cells, dead cells and non-nucleated events were eliminated from the fluorescence analysis of the cell population. Hoescht 33258 dye was used to stain nuclei of enriched CTCs. All experiments were stained with a fixable live/dead dye eFluor 506 to exclude dead cells.

[6] = listed as Oseltamivir Phosphate

Row | Compound | EpCAM + CD133+ cell subpopulation [1] | EpCAM + CD133− cell subpopulation [1] | EpCAM − CD133+ cell subpopulation [1] | EpCAM − CD133− cell subpopulation [1] | EpCAM + CD44+ cell subpopulation ([1]; CD44PE antibody cocktail) | EpCAM + CD44− cell subpopulation ([1]; CD44PE antibody cocktail) | EpCAM − CD44+ cell subpopulation ([1]; CD44PE antibody cocktail) | EpCAM − CD44− cell subpopulation ([1]; CD44PE antibody cocktail) | CD24 + CD44− cell subpopulation [2] | CD44 + CD24+ cell subpopulation [2] | CD44 + CD24− cell subpopulation [2] | CD44 − CD24− cell subpopulation [2] | other results
1 | CCCCC[C@H](O)/C=C/[C@H]1[C@H](O)CC(=O)[C@@H]1C/C=C\CCCC(=O)O [PGE-2, prostaglandin E2, reference compound] | 10.4 percentages of gated subpopulations | 0 percentages of gated subpopulations | 86.7 percentages of gated subpopulations | 2.61 percentages of gated subpopulations | 27.2 percentage of gated cells | 1.75 percentage of gated cells | 4.23 percentage of gated cells | 65.5 percentage of gated cells | 58.7 | 7.3 | 0.61 | 32.4 | EpCAM-CD44+ cell sub-population ([1]; 8 days culture, no serum, CD44PE antibody cocktail): 4.23 % gated; percentage of CD44+CD133− stem cells [3]: enriched
2 | CCOC(=O)C1=C[C@@H](OC(CC)CC)[C@H](NC(C)=O)[C@@H](N)C1 [oseltamivir phosphate] |  |  |  |  |  |  |  |  |  |  |  |  | E-cadherin expression on cell surface [4]: upregulation; N-cadherin expression on cell surface [4]: downregulation; VE-cadherin expression on cell surface [4]: significant downregulation; E-cadherin expression on cell surface [4, 6]: statistically significant upregulation in the epithelial marker E-Cadherin in all 4 cell lines tested with the exception of the double resistant pancreatic cell line; N-cadherin expression on cell surface [4, 6]: Downregulation of N cadherin was seen in all cell lines tested
3 | HGF: Hepatocyte Growth Factor added to cancer cells in culture | 17.2 percentages of gated subpopulations | 0.2 percentages of gated subpopulations | 80.8 percentages of gated subpopulations | 1.58 percentages of gated subpopulations | 16.8 percentage of gated cells | 4.89 percentage of gated cells | 2.12 percentage of gated cells | 74.9 percentage of gated cells | 58.6 | 3.29 | 0.31 | 35.9 | 
4 | Il-8 |  |  |  |  |  |  |  |  |  |  |  |  | EpCAM + CD133+ cell subpopulation [5]: 0.13 percentages of gated subpopulations; EpCAM + CD133− cell subpopulation [5]: 2.51 percentages of gated subpopulations; EpCAM − CD133+ cell subpopulation [5]: 0.09 percentages of gated subpopulations; EpCAM − CD133− cell subpopulation [5]: 90.8 percentages of gated subpopulations
